Laboratory results reported in US11541059B2, “Heterocyclic compounds and uses thereof” (Infinity Pharmaceuticals, Inc., priority 2014, dated 2023).

What was measured:
[1] = test system: CT26 tumors; assay: CT26 colon cancer allograft model; type: in vivo, mouse; settings: FIG. 28
[2] = test system: LLC tumor; assay: Lewis Lung Carcinoma (LLC tumor brei) model; type: in vivo, mouse; settings: FIG. 25A, 25B
Method: Compound BB was tested in the Lewis Lung Carcinoma model, which is known in the art and briefly described hereinabove.
LLC tumor brei model was prepared and injected subcutaneously into a mouse in the hind flank region. The tumor brei was prepared as follows. LL2-Luc tumor cells were grown in culture in DMEM+10% FBS. Cells were implanted @ 1×10^6 cells/100 uL SC in the flank of C57 Albino mice (male) When tumors reached 1000 mm3, tumors were harvested. Only the white, living tissue was harvested. Any material containing visable blood or necrotic area was isolated away from the tumor tissue. Tumor tissue was placed in a Dounce tissue homoginized with 5 mLs of warm DMEM (no FBS). About 1-2 grams of tumor tissue was collected, homogenized, pooled into 50 mL falcon tube, and cells were counted. Cells were spinned @ […], and FBS was pooled off Cells were resuspended to equal 1×10^7 cells/mL with sterile PBS. 100 uL of cells/mouse SC at the hind flank region were implanted. This process was repeated one more time before conducting brei tumor efficacy study.

[3] = test system: CD206 population in LLC tumors; assay: CD206 levels of macrophages in LLC tumors (FACS); type: in vivo, mouse; settings: alone and in combination with cyclophosphamide
Method: Tumors were harvested on the last day or if the vehicles reached approx. 3000 mm^3. Tumors were cut in half. One half was cut in half again with ½ fixed in 10% NBF, and the other was frozen in OCT for frozen sections. The remaining half was processed to single cell suspension and evaluated by FACS using two panels. Antibodies used for staining for FACS were as follows. Staining with CD4 and CD8a: CD45-AF700 (BDB560510) at 1.25 ug/ml; […] Staining with CD11b and GR-1: CD45-AF700 (BDB560510) at 1.25 ug/ml; […] CD45-AF700 (BDB560510) at 1.25 ug/ml; […] Staining with MDSC panel: CD45-AF700 (BDB560510) at 1.25 ug/ml; […] Ly6C APC at 2.5 ug/ml; and Ly6G FITC at 2.5 ug/ml.

[4] = test system: collagen induced arthritis; assay: Rat collagen induced arthritis (CIA) model; settings: FIG. 1
[5] = test system: monocytic iMCs in CT26 subcutaneous tumors; assay: Flow cytometry of tumor-associated myeloid cells, CT26; type: in vivo, mouse; settings: FIG. 38B
Method: Flow cytometry was performed to obtain a more extensive cellular subset analysis. In particular, the study examined T cell vs. Myeloid cells, Myeloid cell subsets, Regulatory vs. effector T cells, and Tumor markers vs. WBC (e.g., PD-L1 expression on tumor).
Different populations of tumor-associated myeloid cells can be identified by flow cytometry, e.g., monocytic immature myeloid cells (iMC),Granulocytic iMCs/Neutrophils, Tumor Associated Macrophages (TAMs), and Granulocytic MDSCs. The different populations, and panels for detecting MDSCs, are described in Cancer Discovery 2011; 1:54-67. Tumors may vary in their myeloid cell composition.

[6] = Pharmacokinetics of Compound BB, single and repeat oral dose; type: in vivo, mouse; settings: female CB6F1 mice, 2, 7.5, 15 mg/kg PO
Method: Animals were weighed daily prior to dosing. […] On subsequent dosing days, the animals' condition was noted prior to dosing; the animals were observed within 4 hours of dosing, and at the end of the day.
Samples were collected at pre-dose 0.25, 0.5, 1, 2, 4, 6 and 24 h following the first dose on day 1 and pre-dose (trough), 0.25, 0.5, 1, 2, 4, 6 and 24 h following the final dose on day 3. Animals received a single oral dose daily for 3 consecutive days. Blood was collected by retro-orbital bleeding for all time points on day 1. All other blood sampling was collected by a cardiac puncture. Blood was collected into K2EDTA tubes and placed on wet ice. Within 15 min of collection, the sample was centrifuged at 10,000 rpm at 4° C. for 10 min in a bench top centrifuge and the plasma transferred to a new microcentrifuge tube.

[7] = test system: CXCL12-induced pAKT in T-cells; assay: CXCL12-induced pAKT assay in T-cells; type: cell-based, human; settings: FIG. 9
Text: There was a tight correlation between the EC50s observed in the CXCL12-induced pAKT assay and the T-cell migration assay.

[8] = test system: tumor growth; assay: Tumor growth with Compound BB alone or co-administered with 5-FU (FIG. 35); type: in vivo
[9] = test system: differentiation of myeloid cells into M2 TAMs; assay: Murine M2 TAM differentiation (ARG1); type: cell-based, mouse; settings: FIG. 22A, 22B
Text: High ARG1 (Arginase-1) levels indicate that myeloid cells are differentiating into M2 macrophages, so lower ARG1 levels relative to a control indicate interference with differentiation into M2 macrophages. Expression of Arginase-1 depletes the tumor microenvironment of arginine, thereby promoting T cell death and NK cell inhibition. Schmid et. al., Proceedings: AACR 103rd Annual Meeting 2012, Cancer Research: Apr. 15, 2012; Volume 72, Issue 8, Supplement 1. […] M2 TAMs promote cancer cell survival (FIG. 23).

[10] = test system: immune gene expression in KPC tumors; assay: RNA expression profiling (TLDA) of KPC pancreatic tumors; type: in vivo, mouse; settings: 3 mg/kg, with or without PDL-1 antibody
Method: RNA expression profiling was performed for immuno-phenotyping with a Tagman low density array (TLDA).
For mouse tumors, snap frozen samples were powdered with a Genogrinder at liquid nitrogen temperatures and RNA was isolated with Trizol. Next, the sample was cleaned-up using Qiashredder, and then using a RNeasy kit.
CT values were used for analysis. For each sample Si and each gene, the following values were calculated: dCT(Si,gene)=CT(Si,gene)−CT(Si,ACTB) ddCT(Si,gene)=dCT(Si,gene)−median(dCT(vehicle treated samples,gene)) RQ(Si,gene)=2^(−ddCT(Si,gene))
This produced a matrix of RQ values: 48 genes (rows)×39 samples (cols).
The analysis used R package Non-negative Matrix Factorization (NMF) with rank=3 and the “lee” algorithm.

[11] = test system: 4T1 tumors; assay: 4T1 breast cancer model; type: in vivo, mouse
Method: Plasma is collected for pharmokinetic (PK) analysis.
Briefly, in this study, treatment was initiated when tumors reached approximately 100 mm^3. […] 1. […] Vehicle+anti-PD-L1 (200 ug); 4.
Luciferin measurements were taken twice a week.

Question: With `C[C@H](NC(=O)c1c(N)nn2cccnc12)c1cc2cccc(C#Cc3cnn(C)c3)c2c(=O)n1-c1ccccc1` [Compound BB] as the molecule, how does the “MDSC expansion after cyclophosphamide treatment” value [1] read?
Answer: expansion is decreased

Question: What about the “Tumor growth, Lewis Lung Carcinoma model” value [2] of the same molecule?
Answer: demonstrated single agent activity

Question: What about the “CD206 population in LLC tumors” value [3] of the same molecule?
Answer: decrease in the CD206 population

Question: And the “Mean ankle diameter, day 9 to day 17” value [4]?
Answer: has therapeutic effects

Question: And the “Monocytic iMCs” value [5]?
Answer: monocytic iMCs were decreased

Question: What about the “Stability in serum (24-hour unbound plasma concentration time course)” value [6] of the same molecule?
Answer: good stability in serum

Question: What about the “Inhibition of CXCL12-induced pAKT in T-cells” value [7] of the same molecule?
Answer: inhibited CXCL12-induced pAKT in T-cells more strongly than a PI3K-δ inhibitor

Question: And the tumor growth ([8]; Compound BB alone (FIG. 35))?
Answer: reduction in tumor growth

Question: And the tumor growth ([8]; co-administration of Compound BB and 5-FU (FIG. 35))?
Answer: further reduction

Question: What about the “M2 TAM differentiation (ARG1 levels)” value [9] of the same molecule?
Answer: inhibited M2 TAM differentiation much more effectively than PI3K-δ inhibitor

Question: What about the “M2 macrophage markers VEGF and ARG-1 (RNA)” value [10] of the same molecule?
Answer: trended towards reduction

Question: And the “Tumor growth, orthotopic 4T1 breast cancer model” value ([11]; 7.5 mg/kg PO QD 3 weeks, FIG. 33A)?
Answer: reduced tumor growth

Question: What about the “Tumor growth, subcutaneous 4T1 breast cancer model” value ([11]; 15 mg/kg PO QD 2 weeks, FIG. 36) of the same molecule?
Answer: demonstrated single agent activity

Question: What about the “Anti-tumor effect maintained after discontinuation of treatment” value ([11]; subcutaneous 4T1, FIG. 34) of the same molecule?
Answer: at least 6 days
